Counter-ions that a name gives are not always drawn.
Legend:
thrombin [1] = conditions: literature; cited from earlier work
trypsin = conditions: literature; cited from earlier work
thrombin [2] = experiment: Thrombin time, plasma (prolongation of coagulation time initiated by thrombin); format: biochemical, dog; conditions: for Thrombin time, plasma: concentration of the inhibitor which doubles the thrombin time of dog plasma: Table 1, 37° C., 30 seconds incubation; for "Thrombin time" Concentration required to prolong the coagulation time by a factor of 2: Table 3
Description: A volume of 200 μl citrate-plasma was heated for 1 minute at 37° C. The coagulation was started by adding 10 μl fresh thrombin solution (about 5 NIH U/ml) and the coagulation time was registrated by a fibrinometer. At the inhibition experiments the plasma was incubated for 30 seconds with 10 μl inhibitor solution at different concentrations before the thrombin solutions was added.
"Thrombin time" designates the concentration (mol/l) of the inhibitor, which doubles the thrombin time of dog plasma. The Arg derivates have been synthesized according to ref. 1 and 2.Tos-Gph-OMe has been synthesized according to ref. 6.

human thrombin = target: T1, human thrombin (Homo sapiens, UniProt P00734); experiment: Determination of Ki, inhibition of reaction of thrombin with substrate S-2238; format: biochemical
T1 construct: human thrombin; purchased Sigma Chemical Co., St. Louis, U.S.A
Description: (§1) The inhibition of reaction of the enzymes (human thrombin; Sigma Chemical Co., St. Louis, U.S.A. and human factor Xa; KabiVitrum AB, Stockholm) with the substrates (S-2238 resp. S-2222, Kabi Diagnostica, Stockholm) was determined at three different substrate concentrations from 0.3 to 2 km. Six different inhibitor concentrations, which give inhibition from 40% to 90%, were incubated with the enzyme for 30 seconds at 37° C. The buffer composition, ionic strength, pH and enzyme concentration were the same as those recommended in the booklets from Kabi Diagnostica. The initial reaction velocity (ΔA/min) was measured on a recorder at 405 nm. Ki values were than graphically determined from Dixon and Lineweaver-Burk diagrams.
Ki of thrombin is given in mol/l.

thrombin [3] = conditions: literature; cited from earlier work; remark: listed apart in the source
human factor Xa = target: T2, human factor Xa (Homo sapiens, UniProt P00742); experiment: Determination of Ki, inhibition of reaction of factor Xa with substrate S-2222; format: biochemical; conditions: Table 3; read-out: Ki FXa (converted)
T2 construct: human factor Xa; purchased KabiVitrum AB, Stockholm
T2 sequence (P00742 235-488 limits assumed): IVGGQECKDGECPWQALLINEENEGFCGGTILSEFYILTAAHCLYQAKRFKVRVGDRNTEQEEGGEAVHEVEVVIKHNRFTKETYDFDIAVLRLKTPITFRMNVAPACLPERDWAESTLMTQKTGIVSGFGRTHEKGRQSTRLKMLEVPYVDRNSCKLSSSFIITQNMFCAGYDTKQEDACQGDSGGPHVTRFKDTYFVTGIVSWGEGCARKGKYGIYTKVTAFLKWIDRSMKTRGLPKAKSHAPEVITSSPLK
T2 sequence (P00742 41-179 partner limits assumed): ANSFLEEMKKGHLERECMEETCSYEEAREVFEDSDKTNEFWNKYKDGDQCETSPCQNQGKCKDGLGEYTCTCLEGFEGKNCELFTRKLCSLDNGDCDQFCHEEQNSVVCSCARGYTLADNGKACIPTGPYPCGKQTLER
Description: as §1

SMILES | "Thrombin time" Concentration required to prolong the coagulation time by a factor of 2 (thrombin [2]) | Ki (human thrombin; Table 3) [µM] | Ki (human factor Xa) [µM] | also measured
CCOC(=O)[C@H](CCCNC(=N)N)NC(=O)c1ccccc1 [BAEE, Bz-Arg-OEt] | – | – | – | substrate for / split by thrombin (thrombin [1]): can be split by thrombin
CCOC(=O)[C@H](Cc1ccc(NC(=N)N)cc1)NC(=O)c1ccccc1 [Bz-Gph-OEt] | – | – | – | substrate for trypsin (trypsin): comparable with Tos-Gph-OMe and Tos-Arg-OMe (TAME)
CN(C)c1cccc2c(S(=O)(=O)N[C@@H](CCCNC(=N)N)C(=O)N3CCCCC3)cccc12 [Dansyl--Arg--piperidide, reference compound] | – | – | – | Thrombin time, plasma: concentration of the inhibitor which doubles the thrombin time of dog plasma (thrombin [2]): 2.10^-6 mol/l; Ki (human thrombin; Table 1): 0.09 µM
Cc1ccc(S(=O)(=O)N[C@@H](CCCNC(=N)N)C(=O)N2CCCCC2)cc1 [Tos--Arg--piperidide, reference compound] | – | – | – | Ki (human thrombin; Table 1): 5 µM
COC(=O)[C@H](Cc1ccc(NC(=N)N)cc1)NS(=O)(=O)c1ccc(C)cc1 [Tos--Gph--OMe] | – | – | – | substrate for / split by thrombin (thrombin [1]): bad substrate for thrombin; inhibition of thrombin (thrombin [3]): ability to inhibit the amidase- and esterase activity of thrombin; Ki (human thrombin; Table 1): 7.5 µM; substrate for trypsin (trypsin): good substrate for trypsin
CN(C)c1cccc2c(S(=O)(=O)N[C@@H](Cc3ccc(NC(=N)N)cc3)C(=O)N3CCCCC3)cccc12 [i, N^α -Dansyl-p-guanidino-Phe-piperidide hydrochloride] | 6.10^-7 mol/l | 0.09 | 250 | Thrombin time, plasma: concentration of the inhibitor which doubles the thrombin time of dog plasma (thrombin [2]): 6.10^-7 mol/l
CC1CCN(C(=O)[C@H](Cc2ccc(NC(=N)N)cc2)NS(=O)(=O)c2ccc3ccccc3c2)CC1 [ii, N^α -(Naphthalene-2-sulfonyl)-p-guanidino-Phe-4-methyl-piperidide hydrochloride] | 1.10^-6 mol/l | – | 20 | Ki (human thrombin; Table 2, Gph-derivatives): 0.31 µM
CC1CCN(C(=O)[C@H](Cc2ccc(NC(=N)N)cc2)NS(=O)(=O)c2cccc3ccccc23)CC1 [iii, α-Naphthalenesulfonyl--Gph--4-methylpiperidide] | – | – | 370 | Ki (human thrombin; Table 2, Gph-derivatives): 0.35 µM
N=C(N)Nc1ccc(C[C@H](NS(=O)(=O)c2ccc3ccccc3c2)C(=O)N2CCOCC2)cc1 [iv, β-Naphthalenesulfonyl--Gph--morpholide] | 8.10^-7 mol/l | – | 50 | Ki (human thrombin; Table 2, Gph-derivatives): 0.18 µM
CCCCN(C)C(=O)[C@H](Cc1ccc(NC(=N)N)cc1)NS(=O)(=O)c1cccc2c(N(C)C)cccc12 [ix] | 2.5.10^-7 mol/l | 0.35 | 130 | –
Cc1ccc(S(=O)(=O)N[C@@H](Cc2ccc(NC(=N)N)cc2)C(=O)N2CCCCC2)cc1 [v, Tos--Gph--piperidide] | 1.10^-6 mol/l | – | 250 | Thrombin time, plasma: concentration of the inhibitor which doubles the thrombin time of dog plasma (thrombin [2]): 1.10^-6 mol/l; Ki (human thrombin; Table 2, Gph-derivatives): 0.8 µM
CN(C)c1cccc2c(S(=O)(=O)N[C@@H](Cc3ccc(NC(=N)N)cc3)C(=O)N3CCCCCC3)cccc12 [vi] | – | 0.08 | 300 | –
CCCC1CCN(C(=O)[C@H](Cc2ccc(NC(=N)N)cc2)NS(=O)(=O)c2cccc3c(N(C)C)cccc23)CC1 [vii] | 1.5.10^-5 mol/l | 0.23 | 200 | –
CN1CCN(C(=O)[C@H](Cc2ccc(NC(=N)N)cc2)NS(=O)(=O)c2cccc3c(N(C)C)cccc23)CC1 [viii] | 1.6.10^-7 mol/l | 0.7 | 300 | –
